Here are results for three compounds from PubChem BioAssay AID1224 (NMMLSC, 2008).

Calls of active or inactive are those of the source. No rule for the calls is given here.

The test deals with G-protein coupled estrogen receptor 1 (Homo sapiens) (UniProt Q99527). As to the kind of experiment: GPR30 binders, concentration-response potency, dose response, cell-based (AID 1224). The conditions noted are these: GPR30-expressing cells, fluorescent ligand binding displacement.

By EC50 is commonly meant the concentration giving half of the maximal effect. For the compound `O=C(O)c1ccc([N+](=O)[O-])c2c1NC(c1ccccc1)C1CC=CC21` (stereo not drawn), the concentration giving a half-maximal response (EC50) was 0.0623 µM. `CC(=O)Oc1ccc(C2Nc3c(C(=O)O)ccc([N+](=O)[O-])c3C3C=CCC32)cc1` (stereo not drawn): the EC50 was > 10 µM (inactive). Regarding `CC(=O)c1ccc2c(c1)C1C=CCC1C(c1cccc([N+](=O)[O-])c1)N2` (stereo not drawn), the “remaining binding, lower = displacement” value (at 100 µM (top of the series)) is “inactive”.
